Laboratory results: the NIST ThermoML archive (doi:10.1021/je0602418)
Values joined by “and” are separate entries in the source; they are usually repeats but may differ in a detail not shown here. Equal values may be shown once. ± gives the expanded uncertainty stated by the source.

Conditions: for Critical pressure / Critical temperature: pulse heating method

COC(=O)CC(=O)OC [dimethyl 1,3-propanedioate]
Liquid, Transpiration method
Conditions | vapor or sublimation pressure [kPa]
278.2 K | 0.0117 ± 0.00059
281.2 K | 0.01507 ± 0.00075
284.3 K | 0.01969 ± 0.00099
287.2 K | 0.02593 ± 0.0013
290.8 K | 0.03523 ± 0.0018
293.2 K | 0.04253 ± 0.0021
296.1 K | 0.0533 ± 0.0027
298 K | 0.06386 ± 0.0032
299.4 K | 0.06974 ± 0.0035
302.2 K | 0.08729 ± 0.0044
303.3 K | 0.09423 ± 0.0047
305.3 K | 0.1063 ± 0.0053
308.4 K | 0.1313 ± 0.0066
311.2 K | 0.165 ± 0.0083
314.3 K | 0.2046 ± 0.01

Liquid
Conditions | Critical pressure [kPa] | Critical temperature [K]
– | 3530 ± 220 | 649 ± 14

COC(=O)CCC(=O)OC [dimethyl 1,4-butanedioate]
Liquid, Transpiration method
Conditions | vapor or sublimation pressure [kPa]
286.4 K | 0.01062 ± 0.00053
289.4 K | 0.01389 ± 0.0007
292.3 K | 0.01793 ± 0.0009
295.2 K | 0.02339 ± 0.0012
298.1 K | 0.0292 ± 0.0015
301.1 K | 0.03798 ± 0.0019
304.2 K | 0.04988 ± 0.0025
307.2 K | 0.06242 ± 0.0031
310.2 K | 0.07685 ± 0.0038
313.2 K | 0.09759 ± 0.0049
316.2 K | 0.1187 ± 0.0059
319.2 K | 0.1462 ± 0.0073
322.3 K | 0.1846 ± 0.0092
325.3 K | 0.2206 ± 0.011
328.3 K | 0.2686 ± 0.013
331.4 K | 0.3232 ± 0.016
334.5 K | 0.395 ± 0.02
337.5 K | 0.4891 ± 0.024
340.6 K | 0.6151 ± 0.031

Liquid
Conditions | Critical pressure [kPa] | Critical temperature [K]
– | 3060 ± 180 | 662 ± 14

COC(=O)CCCCC(=O)OC [dimethyl 1,6-hexanedioate]
Liquid
Conditions | vapor or sublimation pressure
294.2 K | 0.00284 ± 0.00028 kPa
297.1 K | 0.00356 ± 0.00036 kPa
297.4 K | 0.00377 ± 0.00038 kPa
298.1 K | 0.00391 ± 0.00039 kPa
300.6 K | 0.00505 ± 0.00051 kPa
303.1 K | 0.00619 ± 0.00062 kPa
303.3 K | 0.00649 ± 0.00065 kPa
305.4 K | 0.00775 ± 0.00078 kPa
308.1 K | 0.00948 ± 0.00095 kPa and 0.00946 ± 0.00095 kPa
311.6 K | 0.01308 ± 0.0013 kPa
313.2 K | 0.01501 ± 0.0015 kPa
314.4 K | 0.01648 ± 0.0016 kPa
317.2 K | 0.02059 ± 0.0021 kPa
318.2 K | 0.02254 ± 0.0022 kPa
318.5 K | 0.02198 ± 0.0022 kPa
320.2 K | 0.02543 ± 0.0025 kPa
323.3 K | 0.03244 ± 0.0033 kPa
323.4 K | 0.03434 ± 0.0035 kPa
326.2 K | 0.03996 ± 0.004 kPa
328.3 K | 0.05027 ± 0.005 kPa
332.2 K | 0.06088 ± 0.0061 kPa
333.2 K | 0.07135 ± 0.0071 kPa
334.3 K | 0.07203 ± 0.0072 kPa
337.4 K | 0.08819 ± 0.0088 kPa
338.5 K | 0.1013 ± 0.01 kPa and 0.1038 ± 0.01 kPa
340.2 K | 0.1114 ± 0.011 kPa
343.5 K | 0.1393 ± 0.014 kPa and 0.1369 ± 0.014 kPa
348.5 K | 0.1893 ± 0.019 kPa
348.6 K | 0.2004 ± 0.02 kPa
351.7 K | 0.2406 ± 0.024 kPa
353.6 K | 0.2604 ± 0.026 kPa
358.6 K | 0.3551 ± 0.036 kPa and 0.3732 ± 0.037 kPa
361.7 K | 0.446 ± 0.045 kPa
363.7 K | 0.4731 ± 0.047 kPa
368.7 K | 0.6312 ± 0.063 kPa and 0.676 ± 0.068 kPa
369.7 K | 0.6863 ± 0.069 kPa
373.8 K | 0.8347 ± 0.083 kPa and 0.8876 ± 0.089 kPa

Liquid
Conditions | Critical pressure [kPa] | Critical temperature [K]
– | 2500 ± 160 | 692 ± 14

COC(=O)CCCCCC(=O)OC [dimethyl 1,7-heptanedioate]
Liquid, Transpiration method
Conditions | vapor or sublimation pressure [kPa]
291.3 K | 0.0013 ± 7e-05
293.3 K | 0.00161 ± 8e-05
298.3 K | 0.00264 ± 0.00013
303.2 K | 0.00423 ± 0.00021
308.2 K | 0.00693 ± 0.00035
313.2 K | 0.01073 ± 0.00054
318.2 K | 0.01734 ± 0.00087
323.2 K | 0.02558 ± 0.0013
328.2 K | 0.03778 ± 0.0019
333.1 K | 0.0547 ± 0.0027
338.2 K | 0.0784 ± 0.0039
343.2 K | 0.1123 ± 0.0056
348.1 K | 0.1618 ± 0.0081
353.1 K | 0.2251 ± 0.011

Liquid
Conditions | Critical pressure [kPa] | Critical temperature [K]
– | 2370 ± 140 | 711 ± 14

COC(=O)C(=O)OC [dimethyl ethanedioate]
Transpiration method
Conditions | vapor or sublimation pressure [kPa]
293.3 K, Crystal | 0.04995 ± 0.0025
296.3 K, Crystal | 0.06801 ± 0.0034
298.2 K, Crystal | 0.07959 ± 0.004
301.2 K, Crystal | 0.1046 ± 0.0052
303.2 K, Crystal | 0.1298 ± 0.0065
306.2 K, Crystal | 0.178 ± 0.0089
308.2 K, Crystal | 0.2104 ± 0.011
311.2 K, Crystal | 0.2873 ± 0.014
313.2 K, Crystal | 0.3372 ± 0.017
316.2 K, Crystal | 0.4466 ± 0.022
318.3 K, Crystal | 0.5545 ± 0.028
319.2 K, Crystal | 0.6006 ± 0.03
321.2 K, Crystal | 0.7191 ± 0.036
325.3 K, Crystal | 0.9657 ± 0.048
330.4 K, Liquid | 1.399 ± 0.07
333.2 K, Liquid | 1.612 ± 0.081
335.2 K, Liquid | 1.819 ± 0.091
337.2 K, Liquid | 2.022 ± 0.1
340.3 K, Liquid | 2.395 ± 0.12
343.2 K, Liquid | 2.841 ± 0.14
345.3 K, Liquid | 3.144 ± 0.16
346.2 K, Liquid | 3.25 ± 0.16
349.2 K, Liquid | 3.905 ± 0.2
350.4 K, Liquid | 4.141 ± 0.21
352.2 K, Liquid | 4.479 ± 0.22
355.5 K, Liquid | 5.325 ± 0.27
357.2 K, Liquid | 5.707 ± 0.29
359.2 K, Liquid | 6.28 ± 0.31
360.6 K, Liquid | 6.526 ± 0.33
362.2 K, Liquid | 7.181 ± 0.36
365.2 K, Liquid | 8.422 ± 0.42

Liquid
Conditions | Critical pressure [kPa] | Critical temperature [K]
– | 4060 ± 240 | 639 ± 12
